pIC50: −log10 of the molar value.
Experiments:
[1] = Cytotoxicity against human BT549 cells assessed as growth inhibition after 48 hrs by MTT assay; format: functional, cell-based; settings: BT-549, 48 h
MDA-MB-231 [2] = test: Cytotoxicity against human MDA-MB-231 cells assessed as growth inhibition after 48 hrs by MTT assay; format: functional, cell-based; settings: MDA-MB-231, 48 h
[3] = Cytotoxicity against human Hs578T cells assessed as growth inhibition after 48 hrs by MTT assay; format: functional, cell-based; settings: Hs-578T
[4] = Cytotoxicity against human M10 cells assessed as growth inhibition after 48 hrs by MTT assay; format: cell-based; settings: M10, 48 h
MCF7 [5] = test: Cytotoxicity against human MCF7 cells assessed as growth inhibition after 48 hrs by MTT assay; format: functional, cell-based; settings: MCF7, 48 h
[6] = Cytotoxicity against human Hs578T cells assessed as growth inhibition at 20 uM after 48 hrs by MTT assay relative to control; format: functional; settings: Hs-578T, read-out: GI
[7] = Cytotoxicity against human M10 cells assessed as growth inhibition at 20 uM after 48 hrs by MTT assay relative to control; format: cell-based; settings: read-out: GI
MDA-MB-231 [8] = test: Cytotoxicity against human MDA-MB-231 cells assessed as growth inhibition at 20 uM after 48 hrs by MTT assay relative to control; format: functional; settings: MDA-MB-231, 48 h, read-out: GI
MCF7 [9] = test: Cytotoxicity against human MCF7 cells assessed as growth inhibition at 20 uM after 48 hrs by MTT assay relative to control; format: functional; settings: MCF7, 48 h, read-out: GI
[10] = Cytotoxicity against human BT549 cells assessed as growth inhibition at 20 uM after 48 hrs by MTT assay relative to control; format: functional; settings: BT-549, 48 h, read-out: GI
4T1 = test: Antitumor activity against luciferase-expressing mouse 4T1 cells allografted in athymic nude BALB/c mouse assessed as tumor growth inhibition at 12.5 mg/kg/week ip administered on first 3 days in first week followed by two shots on day 1 and day 4 at 6.25 mg/kg/week for another 3 weeks measured every other day until day 28 relative to vehicle-treated control; format: functional

| Structure (SMILES) | pIC50 [1] | pIC50 (MDA-MB-231 [2]) | pIC50 [3] | pIC50 [4] | pIC50 (MCF7 [5]) | inhibition of growth at 20 µM [6] | inhibition at 48 h, 20 µM [7] | inhibition of growth at 20 µM (MDA-MB-231 [8]) | inhibition of growth at 20 µM (MCF7 [9]) | inhibition of growth at 20 µM [10] | TGI (4T1) |
| --- | --- | --- | --- | --- | --- | --- | --- | --- | --- | --- | --- |
| Fc1ccc2[nH]cc(C(c3ccc(C(c4c[nH]c5ccc(F)cc45)c4c[nH]c5ccc(F)cc45)nc3)c3c[nH]c4ccc(F)cc34)c2c1 | 4.88 | 5.07 | 4.77 | 4.72 | 4.85 |  |  |  |  |  |  |
| Fc1ccc2[nH]cc(C(c3cccc(C(c4c[nH]c5ccc(F)cc45)c4c[nH]c5ccc(F)cc45)n3)c3c[nH]c4ccc(F)cc34)c2c1 | 5.01 | 5.02 | 5.05 | 4.92 | 4.70 |  |  |  |  |  |  |
| Clc1ccc2[nH]cc(C(c3cccc(C(c4c[nH]c5ccc(Cl)cc45)c4c[nH]c5ccc(Cl)cc45)n3)c3c[nH]c4ccc(Cl)cc34)c2c1 | 5.22 | < 4.70 | < 4.70 | < 4.70 | < 4.70 | 5% | 28% | 0% | 20% |  |  |
| c1ccc(COc2ccc3[nH]cc(C(c4cccc(C(c5c[nH]c6ccc(OCc7ccccc7)cc56)c5c[nH]c6ccc(OCc7ccccc7)cc56)n4)c4c[nH]c5ccc(OCc6ccccc6)cc45)c3c2)cc1 | < 4.70 | < 4.70 | < 4.70 | < 4.70 | < 4.70 | 0% | 30% | 0% | 0% | 40% |  |
| Clc1ccc2[nH]cc(C(c3ccc(C(c4c[nH]c5ccc(Cl)cc45)c4c[nH]c5ccc(Cl)cc45)nc3)c3c[nH]c4ccc(Cl)cc34)c2c1 | < 4.70 | < 4.70 | < 4.70 | < 4.70 | < 4.70 | 0% | 25% | 9% | 11% | 23% |  |
| COc1ccc2[nH]cc(C(c3ccc(C(c4c[nH]c5ccc(OC)cc45)c4c[nH]c5ccc(OC)cc45)nc3)c3c[nH]c4ccc(OC)cc34)c2c1 | < 4.70 | < 4.70 | < 4.70 | < 4.70 | < 4.70 | 21% | 0% | 11% | 29% | 48% |  |
| Oc1ccc2c(C(c3ccc(C(c4c[nH]c5cc(O)ccc45)c4c[nH]c5cc(O)ccc45)nc3)c3c[nH]c4cc(O)ccc34)c[nH]c2c1 | < 4.70 | 4.85 | < 4.70 | < 4.70 | < 4.70 | 0% | 0% |  | 0% | 19% |  |
| Oc1ccc2[nH]cc(C(c3ccc(C(c4c[nH]c5ccc(O)cc45)c4c[nH]c5ccc(O)cc45)cc3)c3c[nH]c4ccc(O)cc34)c2c1 |  |  |  |  |  |  |  |  |  |  | 16% |
| N#Cc1ccc2[nH]cc(C(c3ccc(C(c4c[nH]c5ccc(C#N)cc45)c4c[nH]c5ccc(C#N)cc45)nc3)c3c[nH]c4ccc(C#N)cc34)c2c1 | < 4.70 | < 4.70 | < 4.70 | < 4.70 | < 4.70 | 22% | 0% | 0% | 0% | 28% |  |
| Oc1ccc2[nH]cc(C(c3cccc(C(c4c[nH]c5ccc(O)cc45)c4c[nH]c5ccc(O)cc45)n3)c3c[nH]c4ccc(O)cc34)c2c1 | < 4.70 | 4.99 | < 4.70 | < 4.70 | < 4.70 | 2% | 9% |  | 11% | 10% |  |
| Brc1ccc2[nH]cc(C(c3ccc(C(c4c[nH]c5ccc(Br)cc45)c4c[nH]c5ccc(Br)cc45)nc3)c3c[nH]c4ccc(Br)cc34)c2c1 | 5.00 | < 4.70 | < 4.70 | < 4.70 | < 4.70 | 0% | 0% | 15% | 0% |  |  |
| N#Cc1ccc2[nH]cc(C(c3cccc(C(c4c[nH]c5ccc(C#N)cc45)c4c[nH]c5ccc(C#N)cc45)n3)c3c[nH]c4ccc(C#N)cc34)c2c1 | 4.89 | < 4.70 | < 4.70 | < 4.70 | < 4.70 | 22% | 0% | 0% | 13% |  |  |
| COc1ccc2[nH]cc(C(c3cccc(C(c4c[nH]c5ccc(OC)cc45)c4c[nH]c5ccc(OC)cc45)n3)c3c[nH]c4ccc(OC)cc34)c2c1 | 4.85 | < 4.70 | < 4.70 | < 4.70 | < 4.70 | 18% | 0% | 0% | 9% |  |  |
| c1ccc2c(C(c3ccc(C(c4c[nH]c5ccccc45)c4c[nH]c5ccccc45)nc3)c3c[nH]c4ccccc34)c[nH]c2c1 | 4.82 | < 4.70 | 5.05 | < 4.70 | < 4.70 |  | 26% | 4% | 21% |  |  |
| Brc1ccc2[nH]cc(C(c3cccc(C(c4c[nH]c5ccc(Br)cc45)c4c[nH]c5ccc(Br)cc45)n3)c3c[nH]c4ccc(Br)cc34)c2c1 | < 4.70 | < 4.70 | < 4.70 | < 4.70 | < 4.70 | 0% | 0% | 13% | 0% | 15% |  |
| c1cc(C(c2c[nH]c3ccccc23)c2c[nH]c3ccccc23)nc(C(c2c[nH]c3ccccc23)c2c[nH]c3ccccc23)c1 | < 4.70 | < 4.70 | < 4.70 | < 4.70 | < 4.70 | 8% | 32% | 29% | 47% | 22% |  |
